Results: US5389627A, “Cephem compounds” (priority 1993, dated 1995)
In brackets after ≈: the same amount, converted by molar mass.

Legend:
Assay in all cases: In vitro antibacterial activity, minimum inhibitory concentration
Type in all cases: cell-based
[1] = test system: S.Faecalis ATCC29212; conditions: Enterococcus faecalis
Excerpt: (§1) As reference compounds, Cefotaxime (CTX), Ceftazidime (CAZ) and Cefpirome (CPR) were employed.

[2] = test system: E.coli ATCC10536; conditions: Escherichia coli; E.coli ATCC10536; read-out: Minimum Inhibitory Concentration (MIC)
Excerpt: as §1

[3] = test system: E.cloacae C4009; conditions: Enterobacter cloacae; E.cloacae C4009; read-out: Minimum Inhibitory Concentration (MIC)
Excerpt: as §1

[4] = test system: S.typhimurium C4045; conditions: Salmonella enterica; S.typhimurium C4045; read-out: Minimum Inhibitory Concentration (MIC)
Excerpt: as §1

[5] = test system: E.cloacae C4008; conditions: Enterobacter cloacae; E.cloacae C4008; read-out: Minimum Inhibitory Concentration (MIC)
Excerpt: as §1

[6] = test system: S.pyogenes ATCC 8668; conditions: Streptococcus pyogenes, ATCC8668; S.pyogenes ATCC 8668; read-out: Minimum Inhibitory Concentration (MIC)
Excerpt: as §1

[7] = test system: MRSA C2208; conditions: Staphylococcus aureus; MRSA C2208; read-out: Minimum Inhibitory Concentration (MIC)
Excerpt: as §1

[8] = test system: S.pyogenes C4003; conditions: Streptococcus pyogenes; S.pyogenes C4003; read-out: Minimum Inhibitory Concentration (MIC)
Excerpt: as §1

[9] = test system: P.aeruginosa C4070; conditions: Pseudomonas aeruginosa; P.aeruginosa C4070; read-out: Minimum Inhibitory Concentration (MIC)
Excerpt: as §1

[10] = test system: E.coli C4002; conditions: Escherichia coli; E.coli C4002; read-out: Minimum Inhibitory Concentration (MIC)
Excerpt: as §1

[11] = test system: K.oxytoca C4022; conditions: Klebsiella oxytoca; K.oxytoca C4022; read-out: Minimum Inhibitory Concentration (MIC)
Excerpt: as §1

[12] = test system: S.marcescens C1052; conditions: Serratia marcescens; S.marcescens C1052; read-out: Minimum Inhibitory Concentration (MIC)
Excerpt: as §1

[13] = test system: P.rettgeri ATCC9919; conditions: Providencia rettgeri; P.rettgeri ATCC9919; read-out: Minimum Inhibitory Concentration (MIC)
Excerpt: as §1

[14] = test system: P.aeruginosa ATCC27853; conditions: Pseudomonas aeruginosa; P.aeruginosa ATCC27853; read-out: Minimum Inhibitory Concentration (MIC)
Excerpt: as §1

[15] = test system: S.aureus ATCC29213; conditions: Staphylococcus aureus; S.aureus ATCC29213; read-out: Minimum Inhibitory Concentration (MIC)
Excerpt: as §1

[16] = test system: E.coli ATCC25922; conditions: Escherichia coli; E.coli ATCC25922; read-out: Minimum Inhibitory Concentration (MIC)
Excerpt: as §1

[17] = test system: P.mirabilis ATCC25933; conditions: Proteus mirabilis; P.mirabilis ATCC25933; read-out: Minimum Inhibitory Concentration (MIC)
Excerpt: as §1

[18] = test system: P.aeruginosa ATCC10145; conditions: Pseudomonas aeruginosa; P.aeruginosa ATCC10145; read-out: Minimum Inhibitory Concentration (MIC)
Excerpt: as §1

[19] = test system: S.marcescens ATCC27117; conditions: Serratia marcescens; S.marcescens ATCC27117; read-out: Minimum Inhibitory Concentration (MIC)
Excerpt: as §1

[20] = test system: S.aureus Smith; conditions: Staphylococcus aureus; S.aureus Smith; read-out: Minimum Inhibitory Concentration (MIC)
Excerpt: as §1

[21] = test system: K.pneumoniae ATCC10031; conditions: Klebsiella pneumoniae; K.pneumoniae ATCC10031; read-out: Minimum Inhibitory Concentration (MIC)
Excerpt: as §1

[22] = test system: S.epidermidis ATCC12228; conditions: Staphylococcus epidermidis; S.epidermidis ATCC12228; read-out: Minimum Inhibitory Concentration (MIC)
Excerpt: as §1

[23] = test system: K.pneumoniae C1040; conditions: Klebsiella pneumoniae; K.pneumoniae C1040; read-out: Minimum Inhibitory Concentration (MIC)
Excerpt: as §1

[24] = test system: S.aureus C4036; conditions: Staphylococcus aureus; S.aureus C4036; read-out: Minimum Inhibitory Concentration (MIC)
Excerpt: as §1

[25] = test system: P.aeruginosa C2027; conditions: Pseudomonas aeruginosa; P.aeruginosa C2027; read-out: Minimum Inhibitory Concentration (MIC)
Excerpt: as §1

MIC [1] | MIC [2] | MIC [3] | MIC [4] | MIC [5] | MIC [6] | MIC [7] | MIC [8] | MIC [9] | MIC [10] | MIC [11] | MIC [12] | MIC [13] | MIC [14] | MIC [15] | MIC [16] | MIC [17] | MIC [18] | MIC [19] | MIC [20] | Compound | other results
> 100 µg/mL | 0.013 µg/mL (≈ 0.0226 µM) | 0.013 µg/mL (≈ 0.0226 µM) | 0.05 µg/mL (≈ 0.0869 µM) | 0.013 µg/mL (≈ 0.0226 µM) | 0.1 µg/mL (≈ 0.174 µM) | > 100 µg/mL | 0.196 µg/mL (≈ 0.341 µM) | 6.25 µg/mL (≈ 10.9 µM) | 3.13 µg/mL (≈ 5.44 µM) | 0.782 µg/mL (≈ 1.36 µM) | 0.2 µg/mL (≈ 0.347 µM) | 0.025 µg/mL (≈ 0.0434 µM) | 3.13 µg/mL (≈ 5.44 µM) | 0.78 µg/mL (≈ 1.36 µM) | 0.05 µg/mL (≈ 0.0869 µM) | 0.05 µg/mL (≈ 0.0869 µM) | 3.13 µg/mL (≈ 5.44 µM) | 0.1 µg/mL (≈ 0.174 µM) | 3.13 µg/mL (≈ 5.44 µM) | Nc1nc(/C(=N/OCC(=O)O)C(=O)N[C@@H]2C(=O)N3C(C(=O)[O-])=C(C[n+]4ccc5[nH]c(=O)[nH]c5c4)CS[C@H]23)ns1 [Ex. 8, 7-β-[(Z)-2-(5-Amino-1,2,4-thiadiazol-3-yl)-2-carboxymethoxyiminoacetamido]-3-[2-(1H,3H)-oxo-imidazo[4,5-c]pyridiniummethyl]-3-cephem-4-carboxylate] | MIC [21]: 0.013 µg/mL (≈ 0.0226 µM); MIC [22]: 1.56 µg/mL (≈ 2.71 µM); MIC [23]: 0.05 µg/mL (≈ 0.0869 µM); MIC [24]: 1.56 µg/mL (≈ 2.71 µM); MIC [25]: 3.13 µg/mL (≈ 5.44 µM)
> 100 µg/mL | 0.013 µg/mL (≈ 0.0234 µM) | 0.025 µg/mL (≈ 0.0451 µM) | 0.025 µg/mL (≈ 0.0451 µM) | 0.013 µg/mL (≈ 0.0234 µM) | 0.004 µg/mL (≈ 0.00721 µM) | > 100 µg/mL | 0.004 µg/mL (≈ 0.00721 µM) | 12.5 µg/mL (≈ 22.5 µM) | 0.05 µg/mL (≈ 0.0902 µM) | 6.25 µg/mL (≈ 11.3 µM) | 0.05 µg/mL (≈ 0.0902 µM) | 0.007 µg/mL (≈ 0.0126 µM) | 6.25 µg/mL (≈ 11.3 µM) | 3.13 µg/mL (≈ 5.64 µM) | 0.05 µg/mL (≈ 0.0902 µM) | 0.025 µg/mL (≈ 0.0451 µM) | 12.5 µg/mL (≈ 22.5 µM) | 0.025 µg/mL (≈ 0.0451 µM) | 1.56 µg/mL (≈ 2.81 µM) | CO/N=C(\C(=O)N[C@@H]1C(=O)N2C(C(=O)[O-])=C(C[n+]3ccc4[nH]c(=NC#N)[nH]c4c3)CS[C@H]12)c1csc(N)n1 [Ex. 3, 7-β-[(Z)-2-(2-Aminothiazol-4-yl)-2-methoxyiminoacetamido]-3-[2-(1H,3H)-cyanoimine-imidazo[4,5-c]pyridiniummethyl]-3-cephem-4-carboxylate] | MIC [21]: 0.007 µg/mL (≈ 0.0126 µM); MIC [22]: 0.78 µg/mL (≈ 1.41 µM); MIC [23]: 0.025 µg/mL (≈ 0.0451 µM); MIC [24]: 3.13 µg/mL (≈ 5.64 µM); MIC [25]: 6.25 µg/mL (≈ 11.3 µM)
> 100 µg/mL | 0.025 µg/mL (≈ 0.0549 µM) | 0.1 µg/mL (≈ 0.22 µM) | 0.05 µg/mL (≈ 0.11 µM) | 0.025 µg/mL (≈ 0.0549 µM) | 0.004 µg/mL (≈ 0.00878 µM) | > 100 µg/mL | 0.004 µg/mL (≈ 0.00878 µM) | 50 µg/mL (≈ 110 µM) | 0.05 µg/mL (≈ 0.11 µM) | 0.78 µg/mL (≈ 1.71 µM) | 0.2 µg/mL (≈ 0.439 µM) | 0.004 µg/mL (≈ 0.00878 µM) | 25 µg/mL (≈ 54.9 µM) | 1.56 µg/mL (≈ 3.43 µM) | 0.1 µg/mL (≈ 0.22 µM) | 0.025 µg/mL (≈ 0.0549 µM) | 25 µg/mL (≈ 54.9 µM) | 0.1 µg/mL (≈ 0.22 µM) | 1.56 µg/mL (≈ 3.43 µM) | CO/N=C(\C(=O)N[C@@H]1C(=O)N2C(C(=O)O)=C(COC(C)=O)CS[C@H]12)c1csc(N)n1 [CTX, Cefotaxime, reference compound] | MIC [21]: 0.002 µg/mL (≈ 0.00439 µM); MIC [22]: 0.78 µg/mL (≈ 1.71 µM); MIC [23]: 0.025 µg/mL (≈ 0.0549 µM); MIC [24]: 1.56 µg/mL (≈ 3.43 µM); MIC [25]: 3.13 µg/mL (≈ 6.87 µM)
> 100 µg/mL | 0.007 µg/mL (≈ 0.0128 µM) | 0.013 µg/mL (≈ 0.0238 µM) | 0.025 µg/mL (≈ 0.0458 µM) | 0.013 µg/mL (≈ 0.0238 µM) | 0.007 µg/mL (≈ 0.0128 µM) | > 100 µg/mL | 0.004 µg/mL (≈ 0.00733 µM) | 3.13 µg/mL (≈ 5.74 µM) | 0.025 µg/mL (≈ 0.0458 µM) | 1.56 µg/mL (≈ 2.86 µM) | 0.05 µg/mL (≈ 0.0916 µM) | 0.007 µg/mL (≈ 0.0128 µM) | 3.13 µg/mL (≈ 5.74 µM) | 3.13 µg/mL (≈ 5.74 µM) | 0.025 µg/mL (≈ 0.0458 µM) | 0.025 µg/mL (≈ 0.0458 µM) | 1.56 µg/mL (≈ 2.86 µM) | 0.025 µg/mL (≈ 0.0458 µM) | 3.13 µg/mL (≈ 5.74 µM) | CO/N=C(\C(=O)N[C@@H]1C(=O)N2C(C(=O)[O-])=C(C[n+]3ccc4c(c3)[nH]c(=O)n4C)CS[C@H]12)c1nsc(N)n1 [Ex. 6, 7-β-[(Z)-2-(5-Amino-1,2,4-thiadiazol-3-yl)-2-methoxyiminoacetamido]-3-[1-methyl-2-(3H)-oxo-imidazo[4,5-c]pyridiniummethyl]-3-cephem-4-carboxylate] | MIC [21]: 0.007 µg/mL (≈ 0.0128 µM); MIC [22]: 1.56 µg/mL (≈ 2.86 µM); MIC [23]: 0.007 µg/mL (≈ 0.0128 µM); MIC [24]: 3.13 µg/mL (≈ 5.74 µM); MIC [25]: 1.56 µg/mL (≈ 2.86 µM)
